Reference: a melting point compilation (Tetko et al.; mined from patent text by program, amines drawn as free bases though some values may be those of a salt)
Residues, ends and D or L forms follow the SMILES beside them. *: point of attachment. OiPr = CC(C)O*

Row | Structure (SMILES) | melting point
1 | N#CCC[C@H]1CC[C@@H](c2ccc(F)cc2)N1S(=O)(=O)c1ccc(Cl)cc1 (racemic) | 108 °C
2 | O=c1[nH]c2ncccc2c(=O)n1CCCCCCn1c(=O)[nH]c2ncccc2c1=O | 324 to 328 °C
3 | CC(C)=CCn1c(=O)sc2c(=O)[nH]c(N)nc21 | 290 to 292 °C
4 | CCOC(=O)c1c(CN(CC)CC)nc2sc3c(c2c1-c1ccc(OC)c(OC)c1)CCCN3C(=O)OCc1ccccc1 | 138 to 139 °C
5 | O=C1c2ccccc2C(=O)c2c1ccc1[nH]c(=O)c(=O)[nH]c21 | 245 to 246 °C
6 | CC(c1ccccc1)n1ncc(-c2nc(-c3ccco3)n[nH]2)c1N (stereo not drawn) | 175 to 176 °C
7 | Cc1nc(C(=O)c2ccc(Cl)cc2)sc1C | 97 °C
8 | O=[N+]([O-])c1ccc2nc(-c3ccco3)[nH]c2c1 | 228 to 229 °C
9 | CC(C)Oc1cc(N2C(=O)C3CCCCN3C2=O)c(F)cc1Cl (stereo not drawn) | 60.5 to 64.5 °C
10 | CCOc1nn(Cc2ccc(OCc3cccnc3)cc2)cc1CCC(=O)O | 120 to 121 °C
11 | NCc1cc(-c2ccnc(Nc3cccc(OC(F)(F)C(F)F)c3)n2)ccn1 | 64 to 67 °C
12 | CC(C)c1cc(C(=O)C=CC(=O)N2CCN(C)CC2)ccc1OCC(=O)Nc1nc2ccccc2s1 | 114 to 115 °C
13 | CN(C)CCC1CCc2cc(OCc3ccc(O)cc3)ccc2C1 (stereo not drawn) | 132 to 135 °C
14 | COc1c2c(c(OC)c(OC)c1OC)CC(CCCCCCCCNC(C)=O)C2 | 57 to 61 °C
15 | CC(C)OC(=O)C(CO)NC(=O)C(CC(=O)O)NC(=O)C(C)N (stereo not drawn) (H-Ala-Asp-Ser-OiPr; configuration not given here) | 222 to 234 °C
16 | CCC(=O)Nc1cccc(-c2ccnc3c(C(=O)c4cccs4)cnn23)c1 | 208 to 210 °C
17 | CCOC(=O)C1=CC(c2cccc(C(F)(F)F)c2)=NN(C(=O)OCC)C1N1CCOCC1 (stereo not drawn) | 128 to 129 °C
18 | COc1nc(C)nc(NC(=O)NS(=O)(=O)c2cccs2)n1 | 182 to 184 °C
19 | O=C(O)COc1ccc(SCc2ccc(OCc3ccccc3)cc2)c2c1CCC2 | 145 to 147 °C
20 | CC(C)[C@H](NC(=O)[C@@H](C)c1ccc(Nc2nc(C(F)(F)F)cs2)cc1)C(=O)O | 99 to 101 °C
21 | Cc1ccc(S(=O)(=O)C2(CC#Cc3ccc(Cl)cc3)SC(=O)N(C(c3ccccc3)(c3ccccc3)c3ccccc3)C2=O)cc1 (stereo not drawn) | 221 to 223 °C
22 | CC1(C)CC(=O)c2c(NC3CC3)sc(-c3cc[nH]n3)c2C1 | 232 to 235 °C
23 | CCCc1cc2cc(O)ccc2c(Oc2ccc(/C=C/C(=O)O)cc2)c1-c1ccccc1 | 120 to 122 °C
24 | CC(C)CCCC(C)NC(=O)CCC(=O)c1ccccc1 (stereo not drawn) | 84 to 87 °C
25 | COC(=O)Cn1nnc(N)n1 | 127 to 128 °C

Row | Structure (SMILES) | melting point
26 | Cc1nc2nc(Cl)c(Cl)nc2s1 | 58 to 60 °C
27 | Cc1ccc(-n2c(-c3ccc(-c4ccc(-c5nc6c7ccccc7c7ccccc7c6n5-c5ccc(C)cc5)cc4)cc3)nc3c4ccccc4c4ccccc4c32)cc1 | 405 °C
28 | COc1ccc(C(=O)O)cc1Oc1ccccc1 | 186 to 187 °C
29 | NC(=O)c1cc([N+](=O)[O-])cnc1C(Cl)Cl | 125 to 127 °C
30 | O=C(O)Cn1cnc2c(NC3CCCCC3)nc(NCc3ccc(C4CCCCC4)cc3)nc21 | 172 to 179 °C
31 | CCn1c(=O)n(C2OC(CO)C(O)C2O)c2nc(N)[nH]c(=O)c21 (stereo not drawn) | 185 to 187 °C
32 | CCOC(=O)c1cc(C)n(-c2ccc([N+](=O)[O-])cn2)c1-c1ccccc1 | 147 to 149 °C
33 | CC(C)(C)c1ccc(Cn2ccc3cc(Br)ccc32)cc1 | 108 to 109 °C
34 | CN(C)CCCN1C(=O)C(NC(=O)Nc2ccccc2)C(=O)N(CC23CC4CC(CC(C4)C2)C3)c2ccccc21 (stereo not drawn) | 138 to 140 °C
35 | NC(=O)C1(c2c(F)cccc2F)CC1 | 137 to 138 °C
36 | O=C(c1cccc(Cl)c1)N1CCCN(CC2=Nc3cccc4c(=O)[nH]nc(c34)N2)CC1 | 147 to 149 °C
37 | COc1cc(Nc2nc(N3CCOCC3)nc(-n3c(C(F)F)nc4c(OC)cccc43)n2)ncn1 | 256 to 259 °C
38 | CN(C)CCCOc1ccc(-c2n[nH]c3ncccc23)cc1 | 176 to 177 °C
39 | ON=Cc1ccccc1-c1ccc2c(c1C=NO)OCO2 | 227 to 229 °C
40 | Cc1nc(-c2cccc(CN3C(=O)C4(COc5cc6c(cc54)OCCO6)c4ccccc43)c2)no1 (stereo not drawn) | 90 to 95 °C
41 | O=C(Nc1cccnc1S(=O)(=O)c1ccc(Cl)cc1)N[C@@H](Cc1ccc(NC(=O)c2c(Cl)cccc2Cl)cc1)C(=O)O | 181 °C
42 | COc1ccc(C2=NNC(=O)CC2c2ccncc2)cc1 (stereo not drawn) | 100 to 102 °C
43 | CC(C)(C)c1cc(C(=O)Nc2cccc(C(=O)O)c2)cc(C(C)(C)C)c1O | 279 to 280 °C
44 | CCCCn1ncc(/C=C(\Cc2cc3c(cc2OC)OCO3)C(=O)O)c1-c1ccc(OC)cc1OCc1ccccc1C(=O)O | 213 to 214 °C
45 | COC1OCC[C@@H]1NC(=O)[C@H](CC(C)C)NC(=O)Nc1cccc2ccccc12 (stereo partly drawn) | 184 to 185 °C
46 | Clc1cnc2cccc(Cl)c2n1 | 120 to 122 °C
47 | CCCCNC(=S)N1CCC(c2nc(-c3ccc(-c4ccccc4)cc3)c[nH]2)CC1 | 102 to 103 °C
48 | CN(C)c1ccc(Br)cn1 | 39 to 41 °C
49 | CC(=O)N1CCc2sc(C(=O)CCCN3CCC(c4noc5cc(F)ccc45)CC3)cc2C1 | 235 °C
50 | COc1cc2c(cc1Br)-c1c(-c3cccs3)c3c(n1CC2)C(=O)N(C(C)C)CCNC3 | 201 to 203 °C

Row | Structure (SMILES) | melting point
51 | Cc1c(O)nc2sc(SCc3ccccc3)nn2c1=O | 247 to 250 °C
52 | C#CCn1c(C(F)(F)F)c(C(C)O)sc1=O (racemic) | 77 to 78 °C
53 | CC(C)c1nc(-c2ccccc2)c(F)c(-c2ccc(F)cc2)c1CO | 164 to 165 °C
54 | COC(=O)CCN1CCC(NC(=O)OC(C)(C)C)CC1 | 91 to 93 °C
55 | CS(C)=Nc1nccnc1Cl | 106 to 108 °C
56 | O=C(O)/C=C/c1ccc(N2CCC(=O)CC2)cc1 | 215 °C
57 | Cc1cc2c(=O)n(CCN3CCC(Nc4nc5ccccc5n4Cc4ccc(F)cc4)CC3)c(=O)[nH]c2s1 | 188 °C
58 | CC1=CC(N)=NC(c2ccccc2C(F)(F)F)N1c1n[nH]c2ccccc12 (stereo not drawn) | 235 to 237 °C
59 | N#CC(O)c1cccc2c(-c3ccccc3)c([N+](=O)[O-])oc12 (stereo not drawn) | 137 to 139 °C
60 | COc1ccc2c(c1)CCC1C2C(O)CC2(C)C1CC1OCCOC12 (stereo not drawn) | 125 to 126 °C
61 | Cn1nnnc1Cc1ccc(N)cc1 | 104 to 105 °C
62 | CC(=O)OC1CSC(Sc2ccc(C(=O)C(F)(F)F)cc2)C(OC(C)=O)C1OC(C)=O (stereo not drawn) | 143 to 148 °C
63 | N#Cc1cccc(S)c1 | 91 to 95 °C
64 | CN1CN(c2ccccc2)C2(CCN(CCCn3c(=O)[nH]c4ccccc43)CC2)C1=O | 186 °C
65 | COC(=O)c1ccc(C(=O)c2c(O)cccc2F)cc1 | 101 °C
66 | CC(=O)OCC1OC(n2cc(C(Br)=CBr)c(=O)[nH]c2=O)C(OC(C)=O)C1OC(C)=O (stereo not drawn) | 83 to 85 °C
67 | COc1ccc(C2(C#Cc3cccc(NC(C)=O)c3)CCC(=O)CC2)cc1OC1CCCC1 | 63 to 64 °C
68 | CC(=O)N[C@@H]1[C@@H](CC2CO2)CC(C(=O)O)=C[C@H]1OC(C)C (stereo partly drawn) | 156 to 157 °C
69 | Cn1cc(C2=C(c3c4n(c5ccccc35)CCC4)C(=O)OC2=O)c2ccccc21 | 125 to 130 °C
70 | CCCCOc1cc(C=C[N+](=O)[O-])c([N+](=O)[O-])cc1OCc1ccccc1 | 152 °C
71 | FC(F)(F)c1ccc(/C=C/c2nc(COc3ccc(CCCn4ccnn4)cc3)co2)cc1 | 157 to 158 °C
72 | CCCC(=O)c1ccc(OC)c(C(=O)O)c1 | 105 to 106 °C
73 | CCCCc1nc2c(N)nc3ccccc3c2n1CCCCS(=O)(=O)c1ccc(F)cc1F | 190 to 193 °C
74 | O=C(O)C(Oc1ccc(F)cc1)c1ccc(Oc2ccc(Cl)cc2)cc1 (stereo not drawn) | 106 to 111 °C
75 | NS(=O)(=O)C=C(c1ccccc1)c1ccccc1 | 134 to 135 °C

Row | Structure (SMILES) | melting point
76 | N#CCCNC(=O)c1cccc(-c2ccc3c(c2)N(Cc2ccc(Cl)c(Cl)c2)CC3)c1 | 135 to 136 °C
77 | CCc1n[nH]c2cc(-c3nn(C(C)c4oc5ccccc5c(=O)c4-c4cccc(F)c4)c4ncnc(N)c34)ccc12 (stereo not drawn) | 270 to 273 °C
78 | CCNC(=O)C(=O)[C@H](Cc1ccccc1)NC(=O)[C@H](CC(C)C)NC(=O)OC1CCOCC1 | 140 to 142 °C
79 | CN(C)CCCn1c(-c2ccccc2)cc2c1CCS(=O)(=O)C2 | 123 to 125 °C
80 | CC(=O)c1cc(C=O)c2occc2c1 | 91 to 93 °C
81 | CC(C)NC1=NS(=O)(=O)c2cc(Cl)cc(Cl)c2N1 | > 230 °C
82 | COC(=O)C1(C)Cc2c(OC)ccc(OC)c2CO1 (stereo not drawn) | 73 to 74.5 °C
83 | O=C1Cc2c(cc3ccccc3c2Br)C(c2ccccc2Cl)N1 (stereo not drawn) | 256 to 257 °C
84 | CC1(C)CON(Cc2ccc(N)cc2Br)C1=O | 109 to 111 °C
85 | CC(C)CS(=O)(=O)N1C[C@@H](C)C[C@H](Nc2ncccc2-c2cnc3[nH]ccc3n2)C1 | 215 to 218 °C
86 | CCc1nc(-n2ccnc2)c2ccccc2c1Cl | 115 °C
87 | O=c1c2c[nH]c3ccccc3n-2c(=O)n1-c1ccccc1 | 231 to 234 °C
88 | O=C1CCC(c2ccccc2)(c2ccccc2)C2CN(C(Cc3ccccc3)=NC(c3ccccc3)c3ccccc3)CC12 (stereo not drawn) | 172 °C
89 | O=C1Nc2cccnc2N(C(=O)CN2CCN(CCO)CC2)c2ccccc21 | 197 to 200 °C
90 | COc1cc(C(O)(C(F)(F)F)C(F)(F)F)cc(Br)c1N(S(C)(=O)=O)S(C)(=O)=O | 193 °C
91 | NS(=O)(=O)c1ccc(N2CCN(Cc3cn4ccccc4n3)CC2)cc1 | 238 to 242 °C
92 | CCCC(=O)c1c[nH]c2c(C(=O)OC)cccc2c1=O | 151 to 153 °C
93 | CCCc1nc(C(C)(C)O)c(C(=O)OCOC(=O)OC(C)C)[nH]1 | 144 to 146 °C
94 | Clc1nc(-n2cccn2)ncc1Cc1ccccc1 | 149 to 151 °C
95 | CCSC1(SCC)CCC2C3CCC4=CC(=O)C=CC4(C)C3C(O)CC21C (stereo not drawn) | 163 to 165 °C
96 | CCn1c(=O)c2cnc(N)nc2n(CC)c1=O | 230 to 232 °C
97 | O=C(O)C1CSC(=S)N1 (stereo not drawn) | 183 to 184 °C
98 | CCNc1nc2n(n1)CCc1ccccc1-2 | 100 to 101 °C
